# Reference: publication PMC12495443, “Developing inhibitors of the guanosine triphosphate hydrolysis accelerating activity of Regulator of G protein Signaling-14 [drawing 1]” (The Journal of Biological Chemistry, 2025)
# Positions count from the first letter of the chain named. Entries after “also recorded” stand apart in the source; their conditions may differ. Like-named read-outs stand apart in the source and are kept apart here.
# Experiments:
# [1] = target: T1, human RGS14 RGS-box (wild-type) (Homo sapiens, UniProt O43566); assay: Transcreener GDP RGScreen fluorescence polarization assay of RGS14 RGS-box GAP activity on Gαi1(DM); type: biochemical; settings: for IC50: Transcreener GDP RGScreen; for Ratio (RGS14 pIC50 / RGS12 pIC50): values > 1.0 reflect RGS14 selectivity
# T1 construct: human RGS14 RGS-box (aa 46–195 of UniProt O43566); host or cells: E. coli
# T1 sequence (O43566 46-195): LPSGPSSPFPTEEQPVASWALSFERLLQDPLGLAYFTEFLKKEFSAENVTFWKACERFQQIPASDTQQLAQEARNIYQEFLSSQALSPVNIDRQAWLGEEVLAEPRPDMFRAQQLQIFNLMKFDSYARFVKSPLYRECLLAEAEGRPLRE
# Description: (§1) We previously described work with BellBrook Labs creating the Transcreener GDP RGScreen fluorescence polarization assay of steady-state GTP hydrolysis, leveraging a double point-mutant in the Gα enzyme to make GTP hydrolysis, rather than GDP (product) release, the rate-limiting step for multiple rounds of GTP conversion ([57], [59]). […] Titrating inputs of the double point-mutant (“DM”) Gαi1 and RGS-box recombinant proteins (Fig. S2, B and C) established a robust, medium-throughput assay for evaluating potential RGS14 and RGS12 inhibitors, with “assay quality” Z′ scores ([60]) above 0.76 for each target (Fig. S2D).
# (§2) Reagents and protocols for the fluorescence anisotropy-based Transcreener GDP RGScreen assay using a rate-altered, double point-mutant, recombinant Gαi1 protein have been extensively described previously ([43], [44]); reactions were always performed so that total GTP converted over the time course was consistently less than 10% of reaction maximum input. Specific methods for its application in assessing RGS14 and RGS12 GAP activity are summarized as follows. Open-reading frames (ORFs) encoding wild-type versions of the human RGS14 RGS-box (aa 46–195 of UniProt O43566) and human RGS12 RGS-box (aa 695–843 of UniProt O14924) were each sub-cloned in-frame with an N-terminal hexahistidine (His6) expression tag in the plasmid pET30a, expressed in E. coli cultures, and then purified by nickel-nitriloacetate (Ni-NTA) and size-exclusion (Superdex 200) column chromatographies by GenScript using previously described methods ([35]). These recombinant His6-tag fusion proteins were stored at −80 °C in storage buffer (150 mM NaCl, 50 mM Tris-HCl pH 8.0, 10% glycerol) before thawing and use. Cysteine-less versions were similarly produced by ORF site-directed mutagenesis: for RGS14, codons for cysteine residues 47 and 130 (numbered as in PDB id 2JNU) were replaced with serine codons; for RGS12, codons for cysteines 4, 51, 78, and 134 (numbered in relation to PDB id 2EBZ) were replaced with serine codons. Use of Transcreener GDP-detection reagents to assess compound inhibition of Naegleria fowleri Gα7 protein GTPase activity ([83]) has previously been described ([84]).
# [2] = target: T2, cysteine-less RGS14 RGS-box protein (Homo sapiens, UniProt O43566, C100S/C183S); assay: Transcreener GDP RGScreen assay with cysteine-less RGS14 RGS-box; type: biochemical; settings: compared with wild-type RGS14 RGS-box
# T2 construct: human RGS14 RGS-box (aa 46–195 of UniProt O43566); host or cells: E. coli
# T2 sequence (O43566 46-195 C100S/C183S): T1 sequence (O43566 46-195) with C55S, C138S
# Description: Given the earlier experience with screening hit CCG-4986 being a covalent modifier of RGS4 cysteine residues ([35]), we sought to exclude protein-thiol reactivity as a potential mechanism of action of the active compounds derived from the AtomNet virtual screening effort ([55]) and SAR campaign follow-ups. To address this possibility and screen out thiol-reactive hits, cysteine-lacking versions of recombinant proteins spanning the RGS-boxes of RGS14 and RGS12 were purified from E. coli cultures.
# Reagents and protocols for the fluorescence anisotropy-based Transcreener GDP RGScreen assay using a rate-altered, double point-mutant, recombinant Gαi1 protein have been extensively described previously ([43], [44]); reactions were always performed so that total GTP converted over the time course was consistently less than 10% of reaction maximum input. Specific methods for its application in assessing RGS14 and RGS12 GAP activity are summarized as follows. Open-reading frames (ORFs) encoding wild-type versions of the human RGS14 RGS-box (aa 46–195 of UniProt O43566) and human RGS12 RGS-box (aa 695–843 of UniProt O14924) were each sub-cloned in-frame with an N-terminal hexahistidine (His6) expression tag in the plasmid pET30a, expressed in E. coli cultures, and then purified by nickel-nitriloacetate (Ni-NTA) and size-exclusion (Superdex 200) column chromatographies by GenScript using previously described methods ([35]). […]
# Supplementary Figure S5. […] (A,B) Recombinant, cysteine residue-lacking (“-cys”) RGS14 RGS-box protein (panel A) and cysteine residue-lacking RGS12 RGS-box protein ([…]) were both observed, in a concentration-dependent fashion (indicated in ng/µL by color), to increase steady-state GDP production by 0.5 ng/µL Gai1(DM) protein in a 20 µL final reaction volume, as measured by the Transcreener® GDP-detection RGScreen™ assay and detected by the change in polarization (ΔmP) at each indicated time point (“enz” = Gai1(DM) protein a.k.a. […]
# [3] = target: T3, human RGS12 RGS-box (wild-type) (Homo sapiens, UniProt O14924); assay: Transcreener GDP RGScreen fluorescence polarization assay of RGS12 RGS-box GAP activity on Gαi1(DM); type: biochemical; settings: wild-type RGS12 RGS-box GAP activity, Gαi1(DM), read-out: RGS12 pIC50 (converted)
# T3 construct: human RGS12 RGS-box (aa 695–843 of UniProt O14924); host or cells: E. coli
# T3 sequence (O14924 695-843): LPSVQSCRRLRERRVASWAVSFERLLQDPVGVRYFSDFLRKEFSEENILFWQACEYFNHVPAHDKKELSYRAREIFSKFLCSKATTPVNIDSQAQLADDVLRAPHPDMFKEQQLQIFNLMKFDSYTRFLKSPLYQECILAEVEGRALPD
# Description: as §1, §2
# THP-1 cell line = assay: Cytotoxicity assays (CytoTox-Glo, CytoTox 96); type: cell-based; settings: THP-1 cells, overnight, CytoTox-Glo and CytoTox 96
# Description: To evaluate cellular toxicity of active compounds, we employed the immortalized human monocytic THP1-Dual cell line (InvivoGen) in two orthogonal cytotoxicity assays: ATP-dependent luminescence (CytoTox-Glo) and colorimetric lactate dehydrogenase (LDH) release (CytoTox 96). For each assay, compounds were serially diluted 2-fold starting at 250 μM and added to 96-well flat-bottom tissue culture plates (Thermo Scientific Nunc, Cat# 165306). THP1-Dual cells were then seeded at 20,000 to 30,000 cells per well in 100 μl RPMI 1640 media supplemented with 10% fetal bovine serum (Gibco). Plates were gently mixed and incubated overnight at 37 °C in a humidified 5% CO2 incubator. For the CytoTox-Glo assay (Promega, Cat# G9291), 50 μl of assay reagent was added to each well. Plates were mixed briefly, sealed, and incubated at room temperature for 15 min before reading luminescence on a TECAN Infinite M1000 Pro plate reader to quantify dead-cell signal. Subsequently, 50 μl of a digitonin-containing lysis solution was added to each well, followed by a second luminescence read after 15 min to assess total cell content. Percent cytotoxicity was calculated per manufacturer instructions. For the CytoTox 96 Non-Radioactive Cytotoxicity Assay (Promega, Cat# G1780), after overnight compound treatment, LDH release into the culture medium was measured by adding the provided substrate mix. Absorbance was read at 490 or 492 nm within 1 h of adding the stop solution. Assay optimization and data normalization were conducted according to the manufacturer’s technical manual.
# [4] = Single-dose pharmacokinetic study, plasma and brain by LC-MS/MS; type: in vivo, male Swiss-Webster mice
# Description: Single-dose pharmacokinetic (PK) studies were conducted under IACUC-approved protocols of the UNTSCP Preclinical Services laboratory at the University of North Texas Health Science Center. Male Swiss-Webster (CFW) mice (∼30 g; Charles River) were used in both studies, housed in groups of three per cage with ad libitum access to food and water and acclimated for a minimum of 3 days prior to dosing. Each compound was evaluated in a single-dose, time-course design using three mice per time point across seven collection points (0.25, 0.5, 1, 2, 4, 8, and 24 h post-dose). For Z56944652, mice received a single intraperitoneal (IP) dose of 10 mg/kg (0.2 ml at 1.5 mg/ml). At each designated time point, mice were euthanized via CO2 inhalation, and blood was collected by cardiac puncture for plasma isolation (K2-EDTA tubes). Brains were aseptically removed, flash-frozen, and stored at −80 °C. For Z55628018, due to poor detection in preliminary studies, the protocol was modified to enhance systemic exposure. Mice were pre-dosed orally with 50 mg/kg of the pan-CYP inhibitor 1-aminobenzotriazole (ABT; ref. ([67])) 2 h prior to administration of Z55628018. The compound was then administered via IP injection at a single dose of 30 mg/kg (0.2 ml at […]). Sample collection and processing procedures were identical to those described above for Z56944652.
# LC-MS/MS analyses were performed at UNTHSC using an Agilent 1260 Infinity HPLC system coupled to an Agilent 6460 Triple Quadrupole mass spectrometer equipped with Jet Stream electrospray ionization (ESI) in positive ion mode. Separation was carried out on a Poroshell 120 EC-C18 column (50 × 3.0 mm, 2.7 μm particle size) maintained at 30 °C, with a mobile phase consisting of 0.1% formic acid in water (A) and 0.1% formic acid in acetonitrile (B) under a standard gradient elution at a flow rate of 0.5 ml/min. The injection volume was 2 μl. Multiple reaction monitoring (MRM) transitions were optimized for each compound: Z56944652 was detected at m/z 353.1 → 227/132/126, and Z55628018 at m/z 391 → 134.8/247.9/132/121. The internal standard, carbamazepine, was monitored at m/z 237.2 → 167. Plasma samples (30–40 μl) were extracted with 1000 to 1200 μl of either acetonitrile or a 50:50 acetonitrile:methanol mixture containing carbamazepine (150–500 ng/ml), followed by vortexing, sonication, centrifugation, and supernatant collection for injection. Brain samples were homogenized in organic solvent (2 ml per 0.5 g tissue), vortexed, centrifuged, and processed using the same analytical workflow. Matrix-matched calibration curves were prepared using blank plasma or brain extract and validated over appropriate dynamic ranges: 0.09 to 46 μg/ml (plasma) and 0.547 to 70 ng/ml (brain) for Z56944652; 0.1 to 12.5 μg/ml (plasma) and 0.1 to 3.13 ng/ml (brain) for Z55628018. […] Retention times were 5.0 ± 0.01 min for Z56944652 and 3.3 ± 0.01 min for Z55628018, with the internal standard eluting at 4.0 ± 0.02 min.
# [5] = wild-type RGS14 RGS-box GAP activity, Gαi1(DM), read-out: RGS14 pIC50 (converted)
SMILES,"IC50 ([1]; wild-type RGS14 RGS-box, read-out: IC50 against RGS14 RGS-box GAP activity)",inhibitory activity on cysteine-free RGS14 RGS-box (in words) [2],Ratio (RGS14 pIC50 / RGS12 pIC50) [1],"IC50 [1, 5]",IC50 [3],cytotoxicity (THP-1 cell line),"brain tissue concentration ([4]; 30 mg/kg IP after 50 mg/kg oral 1-aminobenzotriazole, any time point)","concentration at 1 h ([4]; male, Swiss-Webster (CFW), mouse, plasma, intraperitoneal, 30 mg/kg IP after 50 mg/kg oral 1-aminobenzotriazole, one of three mice, 1-h time point)","time of peak brain level ([4]; 10 mg/kg IP single dose, mice)","peak brain level ([4]; 10 mg/kg IP single dose, mice, 1 h post-dose)","peak CNS level (mean ± SD) ([4]; 10 mg/kg IP, three Swiss Webster mice, at 1 h)","Kp ([4]; male, Swiss-Webster (CFW), mouse, brain, 10 mg/kg IP, throughout the measured time course, read-out: brain-to-plasma concentration ratio (Kp))"
"CN1C(=O)[C@@]23C[C@]4([C@]56C[C@@]78SS[C@@](CO)(C(=O)N7[C@H]5Nc5ccccc56)N(C)C8=O)c5ccccc5N[C@@H]4N2C(=O)[C@]1(CO)SS3 [chaetocin, reference compound]",0.32 µM,largely lost,,,,,,,,,,
"C1=C(c2cc3ccccc3o2)Nn2c(nnc2C2COc3ccccc3O2)S1 (stereo not shown) [Z55628018, 6-(1-benzofuran-2-yl)-3-(2,3-dihydro-1,4-benzodioxin-2-yl)-5H-[1,2,4]triazolo[3,4-b][1,3,4]thiadiazine]",,,0.92,14.5 µM,5.75 µM,Neither triazolothiadiazine derivative was observed to induce significant cell death,No measurable concentrations; also recorded: undetectable,170 ng/mL,,,,
"COc1ccccc1C1=CSc2nnc(COc3ccccc3)n2N1 [Z56944652, 6-(2-methoxyphenyl)-3-(phenoxymethyl)-5H-[1,2,4]triazolo[3,4-b][1,3,4]thiadiazine]",,,0.86,19.1 µM,3.39 µM,Neither triazolothiadiazine derivative was observed to induce significant cell death,,,1 h,~20 ng/g tissue,19.5 ± 0.3 ng/gram brain tissue,~1
